Measured values taken from patent US20060069132A1, “Azolecarboxamide herbicides” (priority 2004, published 2006).
Read-outs that look alike come from different tables or passages of the source.

How the values were obtained:
lambsquarters = assay: Test B pre-/postemergence herbicide test; assay type: in vivo, Chenopodium album; conditions: for pest or weed control at 500 g/ha: 500 g ai/ha
How it was run: (§1)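 Response was scored visually 13 to 15 days after treatment against untreated greenhouse controls, 0 meaning no effect and 100 complete control. Formulations (solvent mixture plus surfactant) went onto soil after planting, onto foliage of 1- to 4-leaf plants, and onto 2-leaf plants in a flooded paddy set including rice and barnyardgrass.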

large crabgrass = assay: Test B pre-/postemergence herbicide test; assay type: in vivo, Digitaria sanguinalis; conditions: for pest or weed control at 500 g/ha: 500 g ai/ha
How it was run: as §1

wheat = assay: Test B postemergence herbicide test; assay type: in vivo, Triticum aestivum; conditions: Triticum aestivum, post-emergence, 336 h, read-out: Wheat plant response rating
How it was run: (§2)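 After treating 2-leaf paddy plants or 2–18 cm postemergence plants (1 to 4 leaves) with formulated chemical, researchers kept them in a greenhouse for 13–15 days. Effects were judged visually versus controls: 0 indicates none, 100 total control.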

morningglory = assay: Test B pre-/postemergence herbicide test; assay type: in vivo, Ipomoea coccinea; conditions: for pest or weed control at 500 g/ha: 500 g ai/ha
How it was run: (§3)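 Visual rating, 0 (no effect) to 100 (complete control), versus untreated controls after 13–15 d in greenhouse. Pre- and postemergence applications (postemergence plants 2–18 cm, 1–4 leaves); flooded paddy arm at 2-leaf stage. Compounds in non-phytotoxic solvent plus surfactant.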

velvetleaf = assay: Test B pre-/postemergence herbicide test; assay type: in vivo, Abutilon theophrasti
How it was run: as §1

giant foxtail = assay: Test B pre-/postemergence herbicide test; assay type: in vivo, Setaria faberi; conditions: for pest or weed control at 500 g/ha: 500 g ai/ha
How it was run: as §1

Surinam grass = assay: Test B pre-/postemergence herbicide test; assay type: in vivo, Urochloa decumbens; conditions: for pest or weed control at 500 g/ha: 500 g ai/ha
How it was run: as §1

corn = assay: Test B pre-/postemergence herbicide test; assay type: in vivo, Zea mays
How it was run: as §1

rice = assay: Test B flooded paddy test; assay type: in vivo, Oryza sativa; conditions: Oryza sativa, 336 h, 1000 g ai/ha, scale 0 to 100 (0 no effect, 100 complete control), read-out: Rice plant response rating
How it was run: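 Postemergence plants were sprayed with formulated test chemicals at 2 to 18 cm height (1- to 4-leaf stage); paddy species were grown to the 2-leaf stage. After 13 to 15 days in a greenhouse, injury was rated visually against untreated controls on a 0–100 scale (0 = no effect, 100 = complete control).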

[1] = test system: small flower umbrella sedge; assay: Test B flooded paddy test; assay type: in vivo, Cyperus difformis; conditions: Cyperus difformis, 336 h, 1000 g ai/ha, scale 0 to 100 (0 no effect, 100 complete control), read-out: Sedge, Umbrella plant response rating
How it was run: (§4)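 Visual ratings, 0 (no effect) to 100 (complete control), made versus controls after 13–15 d greenhouse. Paddy plants treated at 2-leaf stage; postemergence plants at 1- to 4-leaf stage, 2–18 cm tall.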

wild oat = assay: Test B postemergence herbicide test; assay type: in vivo, Avena fatua; conditions: Avena fatua, post-emergence, 336 h, read-out: Oat, Wild plant response rating
How it was run: as §2

barnyardgrass [2] = assay: Test B flooded paddy test; assay type: in vivo, Echinochloa crus-galli; conditions: Echinochloa crus-galli, 336 h, 1000 g ai/ha, scale 0 to 100 (0 no effect, 100 complete control), read-out: Barnyardgrass plant response rating
How it was run: as §4

cocklebur = assay: Test B pre-/postemergence herbicide test; assay type: in vivo, Xanthium strumarium; conditions: for pest or weed control at 500 g/ha: 500 g ai/ha
How it was run: as §3

barnyardgrass [3] = assay: Test B pre-/postemergence herbicide test; assay type: in vivo, Echinochloa crus-galli; conditions: for pest or weed control at 500 g/ha: 500 g ai/ha
How it was run: as §3

pigweed = assay: Test B pre-/postemergence herbicide test; assay type: in vivo, Amaranthus retroflexus; conditions: for pest or weed control at 500 g/ha: 500 g ai/ha
How it was run: as §1

[4] = 125 g ai/ha, 0 is no effect, 100 is complete control, preemergence
[5] = 125 g ai/ha, visual rating, scale 0 (no effect) to 100 (complete control)
[6] = postemergence, 500 g ai/ha, scale 0 to 100, 0 is no effect, 100 is complete control

`CCn1nc2c(c1C(=O)Nc1cc(C(=O)N(C)C)ccc1F)CCC2(C)C` [Compound 352, N-[5-[(dimethylamino)carbonyl]-2-fluorophenyl]-2-ethyl-2,4,5,6-tetrahydro-6,6-dimethyl-3-cyclopentapyrazolecarboxamide] was tested, and the “Plant response rating (0 to 100 scale), Lambsquarters” value (lambsquarters; [4]) was 90, the pest or weed control at 125 g/ha (lambsquarters; Chenopodium album, post-emergence, 336 h, 125 g ai/ha, visual rating, scale 0 (no effect) to 100 (complete control), read-out: Lambsquarters plant response rating) was 10% and the pest or weed control at 500 g/ha (lambsquarters; Chenopodium album, post-emergence, 336 h, postemergence, scale 0 to 100, 0 is no effect, 100 is complete control, read-out: Lambsquarters plant response rating) was 60%. The pest or weed control at 500 g/ha (lambsquarters; Chenopodium album, pre-emergence, 336 h, visual rating, 0 = no effect, 100 = complete control, read-out: Plant response rating, Lambsquarters) was 100%, the “Plant response rating (0 to 100 scale), Crabgrass, Large” value (large crabgrass; [4]) was 90 and the pest or weed control at 125 g/ha (large crabgrass; Digitaria sanguinalis, post-emergence, 125 g ai/ha, visual rating, scale 0 (no effect) to 100 (complete control), read-out: Crabgrass, Large plant response rating) was 20%. The pest or weed control at 500 g/ha (large crabgrass; Digitaria sanguinalis, post-emergence, postemergence, scale 0 to 100, 0 is no effect, 100 is complete control, read-out: Crabgrass, Large plant response rating) was 20%, the pest or weed control at 500 g/ha (large crabgrass; Digitaria sanguinalis, pre-emergence, visual rating, 0 = no effect, 100 = complete control, read-out: Plant response rating, Crabgrass, Large) was 100% and the plant injury at 125 g/ha (wheat; [5]) was 10%. For the same molecule, the plant injury at 500 g/ha (wheat; [6]) was 20%, the “Plant response rating (0 to 100 scale), Morningglory” value (morningglory; [4]) was 0 and the pest or weed control at 125 g/ha (morningglory; Ipomoea, post-emergence, 336 h, 125 g ai/ha, visual rating, scale 0 (no effect) to 100 (complete control), read-out: Morningglory plant response rating) was 10%. The pest or weed control at 500 g/ha (morningglory; Ipomoea, post-emergence, 336 h, postemergence, scale 0 to 100, 0 is no effect, 100 is complete control, read-out: Morningglory plant response rating) was 60%, the pest or weed control at 500 g/ha (morningglory; Ipomoea, pre-emergence, 336 h, visual rating, 0 = no effect, 100 = complete control, read-out: Plant response rating, Morningglory) was 0% and the “Plant response rating (0 to 100 scale), Velvetleaf” value (velvetleaf; [4]) was 30. For the same molecule, the pest or weed control at 125 g/ha (velvetleaf; Abutilon theophrasti, post-emergence, 336 h, 125 g ai/ha, visual rating, scale 0 (no effect) to 100 (complete control), read-out: Velvetleaf plant response rating) was 10%, the pest or weed control at 500 g/ha (velvetleaf; Abutilon theophrasti, post-emergence, 336 h, postemergence, 500 g ai/ha, scale 0 to 100, 0 is no effect, 100 is complete control, read-out: Velvetleaf plant response rating) was 60% and the “Plant response rating (0 to 100 scale), Foxtail, Giant” value (giant foxtail; [4]) was 70. It also gave a pest or weed control at 125 g/ha (giant foxtail; Setaria faberi, post-emergence, 336 h, 125 g ai/ha, visual rating, scale 0 (no effect) to 100 (complete control), read-out: Foxtail, Giant plant response rating) of 10%, a pest or weed control at 500 g/ha (giant foxtail; Setaria faberi, post-emergence, 336 h, postemergence, scale 0 to 100, 0 is no effect, 100 is complete control, read-out: Foxtail, Giant plant response rating) of 30% and a pest or weed control at 500 g/ha (giant foxtail; Setaria faberi, pre-emergence, 336 h, visual rating, 0 = no effect, 100 = complete control, read-out: Plant response rating, Foxtail, Giant) of 100%. The “Plant response rating (0 to 100 scale), Surinam Grass” value (Surinam grass; [4]) was 90, the pest or weed control at 125 g/ha (Surinam grass; Urochloa decumbens, post-emergence, 125 g ai/ha, visual rating, scale 0 (no effect) to 100 (complete control), read-out: Surinam Grass plant response rating) was 10% and the pest or weed control at 500 g/ha (Surinam grass; Urochloa decumbens, post-emergence, postemergence, scale 0 to 100, 0 is no effect, 100 is complete control, read-out: Surinam Grass plant response rating) was 40%. The pest or weed control at 500 g/ha (Surinam grass; Urochloa decumbens, pre-emergence, visual rating, 0 = no effect, 100 = complete control, read-out: Plant response rating, Surinam Grass) was 100%, the “Plant response rating (0 to 100 scale), Corn” value (corn; [4]) was 60 and the plant injury at 125 g/ha (corn; Zea mays, post-emergence, 125 g ai/ha, visual rating, scale 0 (no effect) to 100 (complete control), read-out: Corn plant response rating) was 0%. The plant injury at 500 g/ha (corn; Zea mays, post-emergence, postemergence, 500 g ai/ha, scale 0 to 100, 0 is no effect, 100 is complete control, read-out: Corn plant response rating) was 10%, the Corn plant response rating (crop injury, 0 = no effect, 100 = complete kill) at 500 g/ha (corn; Zea mays, pre-emergence, 500 g ai/ha, visual rating, 0 = no effect, 100 = complete control) was 80% and the plant injury at 1000 g/ha (rice) was 70%. For the same molecule, the pest or weed control at 1000 g/ha [1] was 80%, the pest or weed control at 125 g/ha (wild oat; [5]) was 0% and the pest or weed control at 500 g/ha (wild oat; [6]) was 20%. For the same molecule, the pest or weed control at 1000 g/ha (barnyardgrass [2]) was 90%, the “Plant response rating (0 to 100 scale), Cocklebur” value (cocklebur; [4]) was 0 and the pest or weed control at 125 g/ha (cocklebur; Xanthium strumarium, post-emergence, 125 g ai/ha, visual rating, scale 0 (no effect) to 100 (complete control), read-out: Cocklebur plant response rating) was 0%. The pest or weed control at 500 g/ha (cocklebur; Xanthium strumarium, post-emergence, postemergence, scale 0 to 100, 0 is no effect, 100 is complete control, read-out: Cocklebur plant response rating) was 10%, the pest or weed control at 500 g/ha (cocklebur; Xanthium strumarium, pre-emergence, visual rating, 0 = no effect, 100 = complete control, read-out: Plant response rating, Cocklebur) was 0% and the “Plant response rating (0 to 100 scale), Barnyardgrass” value (barnyardgrass [3]; [4]) was 70. The pest or weed control at 125 g/ha (barnyardgrass [3]; Echinochloa crus-galli, post-emergence, 125 g ai/ha, visual rating, scale 0 (no effect) to 100 (complete control), read-out: Barnyardgrass plant response rating) was 0%, the pest or weed control at 500 g/ha (barnyardgrass [3]; Echinochloa crus-galli, post-emergence, postemergence, scale 0 to 100, 0 is no effect, 100 is complete control, read-out: Barnyardgrass plant response rating) was 10% and the pest or weed control at 500 g/ha (barnyardgrass [3]; Echinochloa crus-galli, pre-emergence, visual rating, 0 = no effect, 100 = complete control, read-out: Plant response rating, Barnyardgrass) was 90%. For the same molecule, the “Plant response rating (0 to 100 scale), Pigweed” value (pigweed; [4]) was 50, the pest or weed control at 125 g/ha (pigweed; Amaranthus retroflexus, post-emergence, 336 h, 125 g ai/ha, visual rating, scale 0 (no effect) to 100 (complete control), read-out: Pigweed plant response rating) was 10% and the pest or weed control at 500 g/ha (pigweed; Amaranthus retroflexus, post-emergence, 336 h, postemergence, scale 0 to 100, 0 is no effect, 100 is complete control, read-out: Pigweed plant response rating) was 60%. The pest or weed control at 500 g/ha (pigweed; Amaranthus retroflexus, pre-emergence, 336 h, visual rating, 0 = no effect, 100 = complete control, read-out: Plant response rating, Pigweed) was 70%.
